Patent US20260008856A1, “METHODS OF TREATING DISEASE USING ANTI-IL1RAP ANTIBODIES AND ANTIBODY DRUG CONJUGATES” (Bluefin Biomedicine, Inc., priority 2022, published 2026)

Columns and labels:
[1] = test system: normal human dermal fibroblasts (NHDF); experiment: IL-6 and IL-8 production in NHDF stimulated with cytokine combo incl. IL-17A; format: cell-based; details: cytokine combo IL-1α/β, IL-36α/β/γ, antibodies 0-20 ug/ml, BFB759 0.5 ug/ml in combination
Experimental: (§1) Human NHDF cells were plated on 96-well, flat-bottom plates at 4,000 cells/well. […] For combination therapy, 0.5 ug/ml BFB759 was mixed with Secukinumab or Isotype control antibody at increasing concentrations (0-20 ug/ml, 5-fold dilution) and incubated with cells in duplicate for 45 minutes, prior to the addition of cytokine combo. The plates were then incubated overnight at 37° C., 5% CO2. 24 hours after treatment, supernatants were transferred and assayed for IL-6 and IL-8, as per manufacture's protocol (R&D Systems; Human IL-6 DuoSet ELISA, Human IL-8/CXCL8 DuoSet ELISA). The raw assay data were analyzed using GraphPad Prism 9 software to perform a non-linear regression.

[2] = test system: TARC production in HDM stimulated human PBMCs; experiment: TARC production in HDM stimulated human PBMCs; format: cell-based
Text: Materials included Human peripheral blood mononuclear cells (PBMCs) that were isolated from healthy donor blood and either frozen in liquid nitrogen and thawed prior to analysis or used fresh. Materials also included HDM (house dust mite extract) that was from Greer lab and purchased through Fisher Scientific (NC9756554, Lot #390844). Additionally, Human IL-4 (204-IL-010) was purchased from R&D Systems; Human IL-13 (200-13) was purchased from Peprotech; JAK inhibitors (JAKi) Abrocitinib (HY-107429) and Upadacitinib (HY-19569) were purchased from MedChemExpress; Dexamethasone (D4902) was purchased from Sigma-Aldrich; Dupilumab (HY-P9926) was purchased from MedChemExpress; Tralokinumab was produced by Bluefin Biomedicine according to the published protein sequence; and TARC ELISA kits (DuoSet Cat #DY364, Quantikine Cat #SDN00) were purchased from R&D Systems.
Blood was drawn in heparin tubes from healthy volunteers. PBMCs were isolated by centrifugation of the blood over Ficoll-Paque Plus density gradients using LeucoSep tubes.
(§2) 0.2 million PBMCs in 100 ul medium (RPMI1640, 10% heat-inactivated FBS) were added to each well of 96 well cell culture plate. BFB759 at multiple concentrations in 50 ul medium was added to the wells. The cells were incubated in the incubator for 45 min. Then, 50 ul HDM solution (final concentration 10 ug/ml) was added to the wells. After 7 days incubation, the supernatant was transferred to a new 96 well plate, and used in TARC ELISA right away, or frozen in −80 C freezer for ELISA later. For the combination studies of BFB759 with other drugs, the single agent or combination of drugs were added to the PBMCs, incubated for 45 min, then HDM solution, or HDM and IL-4 or IL-13 solution were added to the wells. The assay was incubated for 7 days, and the supernatant was harvested for TARC ELISA.

[3] = test system: IL-6 secretion in human whole blood cultures stimulated with HKCA; experiment: IL-6 production in human whole blood cultures stimulated with heat-killed Candida albicans; format: cell-based; details: 24 hours, 1 μg/ml alone, combination 1 μg/ml BFB759 + 0.5 μg/ml adalimumab
Text: Materials included Human peripheral blood drawn from 5 healthy donors. Materials also included Anti-human TNF alpha (Adalimumab Biosimilar), BioXCell cat #SIM0001, lot #8024221F1; Heat-killed Candida albicans (HKCA), InvivoGen cat #tlrl-hkca, lot #6292-44-02; RPMI 1640 with L-glutamine and HEPES, Corning cat #10-041-CM; and Human IL-6 DuoSet ELISA, R and D Systems cat #DY206-05. Blood was drawn into heparin tubes from healthy volunteers. Whole blood cultures comprised of whole blood diluted with plain RPMI 1640 medium were set up in sterile 5.0 ml polypropylene snap cap culture tubes. One of the following treatments were added for 1 hour prior to either being left unstimulated or receiving stimulation with 1.5×10^6 cells heat-killed Candida albicans: medium alone (cells alone), 1 μg/ml IgG1 isotype control antibody alone, 1 μg/ml BFB759 alone, 1 μg/ml adalimumab alone, or one of two combination treatments of 1 μg/ml IgG1 isotype control antibody+0.5 μg/ml adalimumab or 1 μg/ml BFB759+0.5 μg/ml adalimumab. The final volume of each culture was 1.0 ml. Cultures were incubated for 24 hours at 37° C./5% CO2. Supernatants harvested from each culture in duplicate were frozen at −80° C. until assayed in duplicate for IL-6 levels by ELISA.

[4] = test system: normal human dermal fibroblasts (NHDF); experiment: IL-6 and IL-8 production in NHDF stimulated with cytokine combo incl. TNF-α; format: cell-based; details: cytokine combo IL-1α/β, IL-36α/β/γ, antibodies 0-20 ug/ml, BFB759 0.5 ug/ml in combination
Experimental: as §1, with “adalimumab” for “Secukinumab”, “isotype” for “Isotype”

[5] = test system: TARC expression in PBMCs stimulated with HDM and IL-4; experiment: TARC in PBMCs treated by HDM and hIL-4; format: cell-based, human; details: HDM 10 ug/ml, IL-4 750 ug/ml; three antibody concentrations
Experimental: as §2
Dupilumab is approved for treatment of AD (Atopic Dermatitis). It inhibits IL-4/13 signaling by blocking their binding to IL-4Ra. […] (FIG. 15)
In the data shown in FIG. 15, HDM was used at 10 ug/ml, IL-4 was used at […], antibodies were at three different concentrations as shown in the graph. Data shown are mean±s.d.

Secukinumab: anti-IL-17A antibody [reference compound]
IL-6 production [1]: limited inhibition
IL-8 production [1]: limited inhibition

CCCS(=O)(=O)N[C@H]1C[C@@H](N(C)c2ncnc3[nH]ccc23)C1 [Abrocitinib]
inhibition of TARC in HDM stimulated cells ([2]; HDM 10 ug/ml, JAKi and dexamethasone 0.1 nM, 10 nM, 1 uM, BFB759 1 ug/ml in combination): dose dependent inhibition

adalimumab [reference compound]
inhibition of IL-6 secretion [3]: inhibit IL-6 secretion
IL-6 production [4]: limited inhibition
IL-8 production [4]: limited inhibition

Dupilumab: approved for Atopic Dermatitis; inhibits IL-4/13 signaling by blocking their binding to IL-4Ra
inhibition of TARC level ([2]; HDM stimulated PBMCs, same assay): does not inhibit TARC level significantly
inhibition of HDM induced TARC level, FIG. 13 ([2]; antibodies 30 ug/ml, HDM 10 ug/ml): does not or minimally inhibits
inhibition of TARC expression in the HDM and IL-4 model [5]: partially inhibits
